We go through two compounds from the NIST ThermoML archive (doi:10.1016/j.tca.2017.11.006).

SMILES strings stand for the structures. ± gives the expanded uncertainty stated by the source.

`[K+].[O-][Cl+3]([O-])([O-])[O-]` [potassium perchlorate]: where the note is “Crystal 2, DSC”, the Triple point temperature is recorded as 579.15 ± 2 K.
Regarding `[Al]` [aluminum], the Normal melting temperature (Crystal 1, DTA) was determined as 662.00 ± 2 °C.
